Source: patent publication US7767240B2, “Microbiological control in poultry processing” (priority 2001, dated 2010)

Tests used:
Salmonella = Salmonella positive samples, simulated USDA HACCP detection (Example 7); assay type: cell-based, Salmonella enteritidis; settings: 20 ppm (Cl2 equivalent) during chilling; for Salmonella positive samples (Number 51): birds inoculated with Salmonella prior to chilling, control 21/51; for Salmonella positive samples (%): control 41.18%
Description: After normal processing of 56-day-old birds, carcasses were immersed first in a warm bath containing 10^4 per mL Escherichia coli, 10^4 per mL Salmonella enteritidis, 10^4 per mL Pseudomonas aeruginosa, 10^4 per mL Campylobacter jejuni, and 10^4 per mL spoilage bacteria each from two strains (Listeria monocytogenes and Shigella sonnei). Carcasses were then immersed in a chill tank “soup”, containing normal organic fluids (blood, fat, skin, and meat particles) and containing various disinfectants (termed test materials). These whole bird bacteria count tests were conducted at pH 8. The effect of the test compounds on skin pigmentation was determined by use of Minolta Color Meter L value or Lightness, a value or redness and b value or yellowness. Post-chilling skin bacteria of various strains were determined over a 20-day period. Spoilage, using sensory odors as a model, determined time required to create a putrid/ammonia-like odor. After salmonella infection in chill tanks, USDA HACCP salmonella detection was simulated and reported.
DBDMH and BCDMH stock solutions and diluted test solutions (20 ppm Cl2 equivalent), a bacteria stock solution, and a “chicken soup” were prepared as in Example 3 except that the Stabrom® 909 biocide concentrate was diluted by adding 30 mL per liter of water just prior to application. This diluted solution was sprayed on the birds, both inside and outside, in quantities of 200 mL per bird. In addition, the bacterial broth treatments, the whole bird wash sampling procedure, and the methodologies used for quantitative or qualitative determinations for bacterial organisms were conducted as in Example 3.
The details concerning the trial events used as well as the detailed experimental design used in these tests were the same as described in Example 6. The only exceptions were: • a) In the case of the birds of Test Group 5 (note Table 38), while the carcass was still warm, the 10 birds were each sprayed both internally and externally, using a misting hand-held nozzle, with 200 mL of the 3% solution of Stabrom 909 biocide (SSBC). […] The spray was allowed to stay on the warm carcasses for 60 seconds. • b) The treatment on sampling day 0 of 102 total of the remaining 110 carcasses from each treatment involving “whole bird” washing and Salmonella detection, all as described in Example 6, was applied only to the birds of Test Groups 1-4 (note Table 38).

Enterococcus faecium = test: AOAC test method, kill of bacterial culture; assay type: cell-based; settings: for concentration required to achieve complete kill within 30 seconds: Enterococcus faecium, AOAC test
Experimental: One such series of tests involved determinations of microbiological control against Escherichia coli bacteria. Another set of tests involved determinations of microbiological control against Enterococcus faecium. In each case, comparative tests were carried out in the same manner utilizing the AOAC test method. Such test involves exposing a culture of the microorganism to various concentrations of a test solution prepared from an aqueous stock solution of the compound under test. At various time intervals the halogen in the test suspensions is chemically neutralized, and the amount of viable bacteria remaining is enumerated by plating onto nutrient agar and incubating for 2 days at 37° C. Results are expressed at the log10 colony forming units (CFU). The concentration of the compound required to achieve complete kill (i.e., no viable bacteria remain) within 30 seconds is determined in the test.
Table 44 summarizes the data obtained in the tests using respectively 1,3-dibromo-5,5-dimethylhydantoin (DBDMH) and N,N-bromochloro-5,5-dimethylhydantoin (BCDMH) and in which the microorganism in each case was Enterococcus faecium.

[1] = test system: biofilm-associated HPC (heterotrophic plate count) bacteria; test: HPC bacteria eradication in biofilm, PVC sampling pipes; assay type: cell-based
Description: (§1) In another group of tests, the results of which are depicted in FIGS. 5 through 10, several bromine-based microbiocides of this invention were utilized in tests illustrating their effectiveness in eradicating or controlling Heterotrophic Plate Count bacteria i.e., a mixture of naturally-occurring pathogenic bacteria of various unidentified species. These bacteria were challenged both in the form of biofilms and in planktonic form.
(§2) The experimental conditions utilized in these tests involved use of an apparatus consisting of three parallel transparent PVC sampling pipes. These pipes were used for collection of biofilm (i.e., sessile or surface attached) bacteria samples; one as control pipe, one for a relatively low biocide concentration and the third for a higher biocide concentration. The biocide challenge in each case was divided into three phases. First was a 14-day inoculation. Next was a 48-hour disinfection period. Finally a 2-week recovery period was provided. The biocide under test was slug-dosed and during the first hour of exposure, the concentration was adjusted to achieve the desired concentration level.
(§3) The source of the naturally-grown heterotrophic plate count (HPC) bacteria was sediment and associated water collected from the recirculating hot water system of a hospital. […]

[2] = test system: planktonic HPC (heterotrophic plate count) bacteria; test: HPC bacteria eradication in planktonic form, PVC sampling pipes; assay type: cell-based
Description: as §1, §2, §3

[3] = 0.5 mg/L as Br2, contact time 30 sec
[4] = 0.5 mg/L as Br2, contact time 1 min
[5] = 0.5 mg/L as Br2, contact time 2 min
[6] = 0.5 mg/L as Br2, contact time 3 min
[7] = 0.5 mg/L as Br2, contact time 4 min
[8] = 0.5 mg/L as Br2, contact time 5 min
[9] = 0.5 mg/L as Br2, contact time 10 min
[10] = 1.0 mg/L as Br2, contact time 30 sec
[11] = 1.0 mg/L as Br2, contact time 1 min
[12] = 1.0 mg/L as Br2, contact time 2 min
[13] = 1.0 mg/L as Br2, contact time 3 min
[14] = 1.0 mg/L as Br2, contact time 4 min
[15] = 1.0 mg/L as Br2, contact time 5 min
[16] = 1.0 mg/L as Br2, contact time 10 min
[17] = 2.0 mg/L as Br2, contact time 30 sec
[18] = 2.0 mg/L as Br2, contact time 1 min
[19] = 2.0 mg/L as Br2, contact time 2 min
[20] = 2.0 mg/L as Br2, contact time 3 min
[21] = 2.0 mg/L as Br2, contact time 4 min
[22] = 2.0 mg/L as Br2, contact time 5 min
[23] = 2.0 mg/L as Br2, contact time 10 min
[24] = 0.5 ppm as bromine, within three hours
[25] = 5 ppm as bromine, within twelve hours

| Structure (SMILES) | Salmonella positive samples (Number 51) (Salmonella) | Salmonella positive samples (%) (Salmonella) | Log10 CFU Recovered (Enterococcus faecium; [3]) [Log10 CFU] | Log10 CFU Recovered (Enterococcus faecium; [4]) [Log10 CFU] | Log10 CFU Recovered (Enterococcus faecium; [5]) [Log10 CFU] | Log10 CFU Recovered (Enterococcus faecium; [6]) [Log10 CFU] | Log10 CFU Recovered (Enterococcus faecium; [7]) [Log10 CFU] | Log10 CFU Recovered (Enterococcus faecium; [8]) [Log10 CFU] | Log10 CFU Recovered (Enterococcus faecium; [9]) [Log10 CFU] | Log10 CFU Recovered (Enterococcus faecium; [10]) [Log10 CFU] | Log10 CFU Recovered (Enterococcus faecium; [11]) [Log10 CFU] | Log10 CFU Recovered (Enterococcus faecium; [12]) [Log10 CFU] | Log10 CFU Recovered (Enterococcus faecium; [13]) [Log10 CFU] | Log10 CFU Recovered (Enterococcus faecium; [14]) [Log10 CFU] | Log10 CFU Recovered (Enterococcus faecium; [15]) [Log10 CFU] | Log10 CFU Recovered (Enterococcus faecium; [16]) [Log10 CFU] | Log10 CFU Recovered (Enterococcus faecium; [17]) [Log10 CFU] | Log10 CFU Recovered (Enterococcus faecium; [18]) [Log10 CFU] | Log10 CFU Recovered (Enterococcus faecium; [19]) [Log10 CFU] | Log10 CFU Recovered (Enterococcus faecium; [20]) [Log10 CFU] | other results |
| --- | --- | --- | --- | --- | --- | --- | --- | --- | --- | --- | --- | --- | --- | --- | --- | --- | --- | --- | --- | --- | --- |
| CC1(C)C(=O)N(Br)C(=O)N1Br [DBDMH, 1,3-dibromo-5,5-dimethylhydantoin] | 1/51 | 1.96 | 4.32 | 2.36 | 0.00 | 0.00 | 0.00 | 0.00 | 0.00 | 0.00 | 0.00 | 0.00 | 0.00 | 0.00 | 0.00 | 0.00 | 0.00 | 0.00 | 0.00 | 0.00 | Log10 CFU Recovered (Enterococcus faecium; [21]): 0.00 Log10 CFU; Log10 CFU Recovered (Enterococcus faecium; [22]): 0.00 Log10 CFU; Log10 CFU Recovered (Enterococcus faecium; [23]): 0.00 Log10 CFU; concentration required to achieve complete kill within 30 seconds (Enterococcus faecium): one; biofilm-associated HPC bacteria eradicated [1, 24]: over 99%; biofilm-associated HPC bacteria eradicated [1, 25]: ~99.9%; planktonic HPC bacteria eradicated [2, 24]: ~99%; planktonic HPC bacteria eradicated [2, 25]: ~99.99% |
| CC1(C)C(=O)N(Cl)C(=O)N1Br [BCDMH, N,N′-bromochloro-5,5-dimethylhydantoin] | 6/51 | 11.76 | >4.48 | 3.53 | 2.63 | 0.00 | 0.00 | 0.00 | 0.00 | >4.48 | 2.38 | 0.00 | 0.00 | 0.00 | 0.00 | 0.00 | 0.00 | 0.00 | 0.00 | 0.00 | Log10 CFU Recovered (Enterococcus faecium; [21]): 0.00 Log10 CFU; Log10 CFU Recovered (Enterococcus faecium; [22]): 0.00 Log10 CFU; Log10 CFU Recovered (Enterococcus faecium; [23]): 0.00 Log10 CFU; concentration required to achieve complete kill within 30 seconds (Enterococcus faecium): two |
